Assay results as given in DBAASP.
In brackets after ≈: the same amount, converted by molar mass. Blank lines part the entries; values can stand above or below the compound they belong to.

Legend:
Assay in all cases: ≥ marks a high value that may be exact or a test limit, other limits are often not marked, values filed in µg/mL are converted to µM
Escherichia coli ML-35p = test system: Escherichia coli ML-35p
[1] = test system: Enterococcus faecalis CDC 21
[2] = test system: Enterococcus faecium 94-132
[3] = test system: Staphylococcus aureus 930918-3
[4] = test system: Listeria monocytogenes EGD
[5] = test system: Pseudomonas aeruginosa MR2123
Escherichia coli mcr106 = test system: Escherichia coli mcr106
[6] = test system: Pseudomonas aeruginosa MR3007
Enterococcus faecium = test system: Enterococcus faecium
Klebsiella pneumoniae = test system: Klebsiella pneumoniae
Escherichia coli BAS 849 = test system: Escherichia coli BAS 849
[7] = test system: Staphylococcus aureus 30371
[8] = test system: Pseudomonas aeruginosa SBI-N
[9] = test system: Staphylococcus aureus 28841
[10] = test system: Salmonella enterica serovar typhimurium MS7953s
[11] = test system: Salmonella enterica subsp. enterica serovar Typhimurium ATCC 14028s
[12] = test system: Psychrobacter faecalis X29
Serratia rubidaea X01 = test system: Serratia rubidaea X01
[13] = test system: Staphylococcus aureus ATCC 2592
[14] = test system: Bacillus licheniformis X39
[15] = test system: Rhodococcus rhodochrous X15
[16] = test system: Candida albicans ATCC 2002
[17] = test system: Staphylococcus carnosus KHS
Staphylococcus aureus = test system: Staphylococcus aureus
[18] = test system: Pseudomonas aeruginosa PAO1
[19] = test system: Mannheimia haemolytica Serovar 2
Aspergillus fumigatus = test system: Aspergillus fumigatus
[20] = test system: Salmonella enterica subsp. arizonae
Pasteurella multocida = test system: Pasteurella multocida
[21] = test system: Corynebacterium pseudotuberculosis ATCC 19410
[22] = test system: Mannheimia haemolytica Serovar 6
Bibersteinia trehalosi = test system: Bibersteinia trehalosi
[23] = test system: Mannheimia haemolytica Serovar 1
[24] = test system: Enterococcus faecalis ATCC 29212
[25] = test system: Salmonella enterica serovar Typhimurium
Candida albicans = test system: Candida albicans
[26] = test system: Staphylococcus epidermidis
[27] = test system: Staphylococcus aureus ATCC 25923
[28] = test system: Pseudomonas aeruginosa 253
Escherichia coli UB1005 = test system: Escherichia coli UB1005
[29] = test system: Pseudomonas aeruginosa H103
[30] = test system: Pseudomonas aeruginosa 919
[31] = test system: Pseudomonas aeruginosa 910
Candida albicans 820 = test system: Candida albicans 820
Escherichia coli ML-35 = test system: Escherichia coli ML-35

Compound: CC[C@H](C)[C@H](NC(=O)[C@H](CCC(=O)O)NC(=O)[C@H](CCCCN)NC(=O)[C@H](C)NC(=O)[C@H](C)NC(=O)[C@@H](NC(=O)[C@H](CCCCN)NC(=O)CNC(=O)[C@H](Cc1ccccc1)NC(=O)[C@H](CC(=O)O)NC(=O)[C@H](CCCCN)NC(=O)[C@H](CC(C)C)NC(=O)[C@@H](NC(=O)[C@H](CO)NC(=O)[C@H](CCSC)NC(=O)[C@H](CC(C)C)NC(=O)CN)[C@@H](C)O)[C@@H](C)O)C(=O)N[C@@H](C)C(=O)N[C@@H](CCC(N)=O)C(=O)N[C@@H](CO)C(=O)N[C@@H](CC(C)C)C(=O)N[C@@H](CC(C)C)C(=O)N[C@@H](CO)C(=O)N[C@H](C(=O)N[C@@H](C)C(=O)N[C@@H](CO)C(=O)N[C@H]1CSSC[C@@H](C(=O)O)NC(=O)[C@H]([C@@H](C)O)NC(=O)[C@H](CCCCN)NC(=O)[C@H](C)NC(=O)[C@H](CC(C)C)NC(=O)[C@H](CCCCN)NC1=O)[C@@H](C)O [GLMSTLKDFGKTAAKEIAQSLLSTASCKLAKTC]
- MIC [12]: 1.84 µM (≈ 6.3 µg/mL)
- MIC (Serratia rubidaea X01): 29.3 µM (≈ 99.9 µg/mL)
- MIC [13]: 3.66 µM (≈ 12.5 µg/mL)
- MIC [14]: 14.6 µM (≈ 50 µg/mL)
- MIC [15]: 0.468 µM (≈ 1.6 µg/mL)
- MIC [16]: ≥ 58.5 µM
- MIC [17]: 1.84 µM (≈ 6.3 µg/mL)

Compound: CC[C@H](C)[C@H](NC(=O)[C@H](CCCN=C(N)N)NC(=O)[C@H](C)NC(=O)[C@H](CC(C)C)NC(=O)[C@@H](N)CCCN=C(N)N)C(=O)N[C@H](C(=O)N[C@H](C(=O)N[C@H](C(=O)N[C@@H](CCCN=C(N)N)C(=O)N[C@H](C(=O)N[C@@H](CCCN=C(N)N)C(=O)N[C@@H](CCCN=C(N)N)C(N)=O)C(C)C)[C@@H](C)CC)C(C)C)C(C)C [RLARIVVIRVRR]
- MIC [24]: 5.31 µM (≈ 8 µg/mL)
- MIC [25]: 5.31 µM (≈ 8 µg/mL)
- MIC (Candida albicans): 5.31 µM (≈ 8 µg/mL)
- MIC [26]: 1.33 µM (≈ 2 µg/mL)
- MIC [18]: 16 µM (≈ 24.1 µg/mL)
- MIC [27]: 5.31 µM (≈ 8 µg/mL)
- MIC [28]: ≥ 64 µM
- MIC (Escherichia coli UB1005): 5.31 µM (≈ 8 µg/mL)
- MIC [29]: 10.6 µM (≈ 16 µg/mL)
- MIC [30]: ≥ 32 µM
- MIC [31]: ≥ 64 µM

Compound: CC[C@H](C)[C@@H]1NC(=O)[C@@H]2CSSC[C@H](NC(=O)[C@H](Cc3ccc(O)cc3)NC(=O)[C@@H](NC(=O)[C@H](CC(C)C)NC(=O)[C@H](CCCNC(=N)N)NC(=O)CNC(=O)CNC(=O)[C@@H](N)CCCNC(=N)N)CSSC[C@@H](C(=O)N[C@H](C(N)=O)C(C)C)NC1=O)C(=O)N[C@@H](CCCNC(=N)N)C(=O)N[C@@H](CCCNC(=N)N)C(=O)N[C@@H](CCCNC(=N)N)C(=O)N[C@@H](Cc1ccccc1)C(=O)N2 [RGGRLCYCRRRFCICV]
- MIC [4]: 12.7 µM (≈ 24.9 µg/mL)
- MIC (Candida albicans 820): 12.7 µM (≈ 24.9 µg/mL)
- MIC (Escherichia coli ML-35): 12.7 µM (≈ 24.9 µg/mL)

More lines, main results first:

- MIC (Escherichia coli ML-35p): 0.494 µM (≈ 1.3 µg/mL)
- MIC [1]: 0.988 µM (≈ 2.6 µg/mL)
- MIC [2]: 0.114 µM (≈ 0.3 µg/mL)
- MIC [3]: 1.48 µM (≈ 3.9 µg/mL)
- MIC [4]: 0.152 µM (≈ 0.4 µg/mL)
- MIC [5]: 0.266 µM (≈ 0.7 µg/mL)
- MIC (Escherichia coli mcr106): 0.266 µM (≈ 0.7 µg/mL)
- MIC [6]: 0.342 µM (≈ 0.9 µg/mL)
- MIC (Enterococcus faecium): 0.19 µM (≈ 0.5 µg/mL)
- MIC (Klebsiella pneumoniae): 1.06 µM (≈ 2.8 µg/mL)
- MIC (Escherichia coli BAS 849): 0.266 µM (≈ 0.7 µg/mL)
- MIC [7]: 2.2 µM (≈ 5.8 µg/mL)
- MIC [8]: 0.342 µM (≈ 0.9 µg/mL)
- MIC [9]: 0.95 µM (≈ 2.5 µg/mL)
- MIC [10]: 0.494 µM (≈ 1.3 µg/mL)
- MIC [11]: 0.57 µM (≈ 1.5 µg/mL)
Compound: CC[C@H](C)[C@H](NC(=O)[C@H](CCCCN)NC(=O)CNC(=O)[C@H](CC(C)C)NC(=O)[C@H](Cc1ccccc1)NC(=O)[C@H](CCC(N)=O)NC(=O)[C@H](Cc1ccccc1)NC(=O)[C@@H](N)C(C)C)C(=O)N[C@H](C(=O)N[C@@H](CCCCN)C(=O)N[C@@H](CCCCN)C(=O)N[C@H](C(=O)NCC(=O)N[C@@H](CC(N)=O)C(=O)N[C@@H](Cc1ccccc1)C(=O)N[C@H](C(=O)N[C@@H](CCCCN)C(=O)NCC(=O)N[C@@H](Cc1ccccc1)C(=O)N[C@@H](CO)C(=O)N[C@@H](CCCCN)C(=O)N[C@H](C(=O)N[C@@H](Cc1ccccc1)C(=O)O)C(C)C)C(C)C)C(C)C)[C@@H](C)CC [VFQFLGKIIKKVGNFVKGFSKVF]

- MIC (Staphylococcus aureus): > 10.4 µM
- MIC [18]: 5.2 µM (≈ 10 µg/mL)
- MIC (Aspergillus fumigatus): 20.8 µM (≈ 40 µg/mL)
- MIC [20]: 10.4 µM (≈ 20 µg/mL)
- MIC (Pasteurella multocida): 10.4 µM (≈ 20 µg/mL)
- MIC [21]: 10.4 µM (≈ 20 µg/mL)
- MIC (Klebsiella pneumoniae): > 10.4 µM
- MIC (Bibersteinia trehalosi): 10.4 µM (≈ 20 µg/mL)
Compound: CC[C@H](C)[C@H](NC(=O)[C@H](CCCCN)NC(=O)[C@H](CCCN=C(N)N)NC(=O)CNC(=O)[C@H](CC(C)C)NC(=O)[C@H](C)NC(=O)[C@H](CCCN=C(N)N)NC(=O)[C@H](CC(C)C)NC(=O)CNC(=O)[C@@H](N)CCCN=C(N)N)C(=O)N[C@@H](C)C(=O)N[C@@H](Cc1cnc[nH]1)C(=O)NCC(=O)N[C@H](C(=O)N[C@@H](CCCCN)C(=O)N[C@@H](C)C(=O)N[C@@H](Cc1ccc(O)cc1)C(=O)NCC(=O)O)C(C)C [RGLRALGRKIAHGVKAYG]
- MIC [19]: 4.32 µM (≈ 8.3 µg/mL)
- MIC [22]: 10.4 µM (≈ 20 µg/mL)
- MIC [23]: 5.2 µM (≈ 10 µg/mL)
